Experimental data reported in US5618795A, “Dibekacin derivatives and arbekacin derivatives active against resistant bacteria, and the production thereof” (Zaidan Hojin Biseibutsu Kagaku Kenkyu Kai, priority 1992, dated 1997).
In brackets after ≈: the same amount, converted by molar mass. Like-named read-outs stand apart in the source and are kept apart here.

How the values were obtained:
[1] = test system: clinically isolated strains of MRSA; test: Antibacterial MIC spectra against 50 clinically isolated strains of MRSA; assay type: cell-based, methicillin-resistant Staphylococcus aureus; conditions: Staphylococcus aureus; for MIC50: 50% of the 50 MRSA strains inhibited, read-out: MIC50; for MIC: range over 50 clinically isolated strains of MRSA, read-out: Antibacterial MIC spectra
Procedure: (§1) Minimum growth inhibitory concentrations (MIC) of each of 2"-amino-2"-deoxyarbekacin (Compound Ia), 2"-amino-5,2"-dideoxyarbekacin (Compound Ib), 2"-amino-2"-deoxydibekacin (Compound IIa) and 2"-amino-5,2"-dideoxydibekacin (Compound IIb) against various bacteria (20 strains) and against clinically isolated strains of MRSA (50 strains) were determined by standard serial dilution method on Muller-Hinton's agar medium (as estimated after cultivating at 27° C. for 18 hours), and the test results obtained are shown in TABLE 3 and TABLE 4, respectively.
Note:- MIC50 or MIC90 represents the concentration of tested
active compound at which 50% or 90% of the total numbers of the bacterial
strains tested were inhibited from their growth. DKB denotes dibekacin,
(§2) Minimum growth inhibitory concentrations (MIC) of each of 2"-amino-5,2"-dideoxy-5-epi-fluoroarbekacin (Compound XVIa) and 2"-amino-5,2"-dideoxy-5-epi-aminoarbekacin (Compound XVIb) against various bacteria (18 strains) and against clinically isolated strains of MRSA (50 strains) were determined by standard serial dilution method on Muller-Hinton's agar medium (as estimated after cultivation at 27° C. for 18 hours), and the test results obtained are shown in TABLE 5 and TABLE 6, respectively.

[2] = test system: strain of MRSA which exhibits a moderate resistance to arbekacin; test: Minimum growth inhibitory concentration against MRSA strain moderately resistant to arbekacin; assay type: cell-based, methicillin-resistant Staphylococcus aureus; conditions: Staphylococcus aureus, read-out: minimum growth inhibitory concentration of arbekacin
[3] = test system: gram-positive and gram-negative bacteria; test: Antibacterial activities against gram-positive and gram-negative bacteria; assay type: cell-based
Procedure: as §1, §2

mice = test: Acute toxicity, single intravenous administration to mice; assay type: in vivo; conditions: mice / mammals
Source text: (§3) 50% Lethal dosages (LD50, observations for two weeks) of the new compounds of this invention as estimated upon single intravenous administration to mice (ICR-strain, 4 weeks old, female) are as follows:
(§4) 50% Lethal dosages (LD50, observations for two weeks) of the new compounds of general formula (XVI) according to the seventh aspect of this invention as estimated upon single intravenous administration to mice (ICR-strain, 4 weeks old, female) are as follows: […]

[4] = as above; assay type: in vivo; conditions: mouse, in vivo, iv
Source text: as §3, §4

Solubility in water = assay type: physicochemical
S. epidermidis 109 = test: MIC by standard serial dilution method on Muller-Hinton's agar; assay type: cell-based; conditions: Staphylococcus epidermidis, 109; Table 3; 27° C., 18 hours; read-out: MIC
Procedure: as §1, §2

[5] = test system: Providencia rettgeri GN311; test: as above; assay type: cell-based; conditions: GN311, Table 3, 27° C., 18 hours, read-out: MIC
Procedure: as §1, §2

P. aeruginosa H9 = test: as above; assay type: cell-based; conditions: Pseudomonas aeruginosa, H9; Table 3; 27° C., 18 hours; read-out: MIC
Procedure: as §1, §2

Serratia marcescens = test: as above; assay type: cell-based; conditions: Table 3, 27° C., 18 hours, read-out: MIC
Procedure: as §1, §2

Bacillus subtilis PCI219 = test: as above; assay type: cell-based; conditions: Table 3, 27° C., 18 hours
Procedure: as §1, §2

E. coli JR66/W677 = test: as above; assay type: cell-based; conditions: Escherichia coli, JR66/W677, 18 h
Procedure: as §1, §2

[6] = test system: Staphylococcus aureus FDA209P; test: as above; assay type: cell-based; conditions: Table 3, 27° C., 18 hours
Procedure: as §1, §2

E. coli K-12 LA290 R55 = test: as above; assay type: cell-based; conditions: Escherichia coli, K12LA290R55, 18 h
Procedure: as §1, §2

[7] = test system: Shigella dysenteriae JSI1910; test: as above; assay type: cell-based; conditions: JSI1910, 18 h
Procedure: as §1, §2

[8] = test system: Pseudomonas aeruginosa A3; test: as above; assay type: cell-based; conditions: A3, Table 3, 27° C., 18 hours, read-out: MIC
Procedure: as §1, §2

P. aeruginosa TI-13 = test: as above; assay type: cell-based; conditions: Pseudomonas aeruginosa, TI13, 18 h
Procedure: as §1, §2

E. coli K-12 ML1629 = test: as above; assay type: cell-based; conditions: Escherichia coli, K12ML1629; Table 3; 27° C., 18 hours; read-out: MIC
Procedure: as §1, §2

P. aeruginosa PST1 = test: as above; assay type: cell-based; conditions: Pseudomonas aeruginosa, Table 3, 27° C., 18 hours
Procedure: as §1, §2

Salmonella typhi T-63 = test: as above; assay type: cell-based; conditions: Salmonella enterica, Table 3, 27° C., 18 hours
Procedure: as §1, §2

Escherichia coli NIHJ = test: as above; assay type: cell-based; conditions: Table 3, 27° C., 18 hours
Procedure: as §1, §2

[9] = test system: Klebsiella pneumoniae PCI602; test: as above; assay type: cell-based; conditions: PCI602, Table 3, 27° C., 18 hours, read-out: MIC
Procedure: as §1, §2

Proteus vulgaris OX19 = test: as above; assay type: cell-based; conditions: OX19, Table 3, 27° C., 18 hours, read-out: MIC
Procedure: as §1, §2

S. aureus Smith = test: as above; assay type: cell-based; conditions: Staphylococcus aureus; Table 3; 27° C., 18 hours
Procedure: as §1, §2

B. cereus ATCC10702 = test: as above; assay type: cell-based; conditions: Bacillus cereus, ATCC10702; Table 3; 27° C., 18 hours; read-out: MIC
Procedure: as §1

E. coli K-12 ML1410 = test: as above; assay type: cell-based; conditions: Escherichia coli, K12ML1410; Table 3; 27° C., 18 hours
Procedure: as §1

For `NCC[C@H](O)C(=O)N[C@@H]1C[C@H](N)[C@@H](O[C@H]2O[C@H](CN)CC[C@H]2N)[C@H](O)[C@H]1O[C@H]1O[C@H](CO)[C@@H](O)[C@H](N)[C@H]1O` [ABK, (S)-1-N-(4-amino2-hydroxybutyryl)dibekacin, reference compound], the MIC50 ([1]; 27° C., 18 hours) was 0.39 µg/mL (≈ 0.706 µM), the MIC90 ([1]; 90% of the 50 MRSA strains inhibited, 27° C., 18 hours, read-out: MIC90) was 6.25 µg/mL (≈ 11.3 µM) and the MIC ([1]; 27° C., 18 hours) was 0.2 to 6.25 µg/mL (≈ 0.362 to 11.3 µM). The MIC [2] was 6.25 to 12.5 µg/mL (≈ 11.3 to 22.6 µM).

For `NCC[C@H](O)C(=O)N[C@@H]1C[C@H](N)[C@@H](O[C@H]2O[C@H](CN)CC[C@H]2N)C[C@H]1O[C@H]1O[C@H](CO)[C@@H](O)[C@H](N)[C@H]1N` [Compound Ib, 2"-Amino-5,2"-dideoxyarbekacin], the “antibacterial activity (in words)” value [3] was “broad and excellent antibacterial activity”, the “acute toxicity (in words)” value (mice) was “higher acute toxicity to mice than that of 2"-amino-2"-deoxyarbekacin” and the LD50 at 336 h [4] was 50 to 100 mg/kg. For the same compound, the Solubility (Solubility in water) was “easily soluble in water”, the MIC90 ([1]; MRSA, 18 h) was 1.56 µg/mL (≈ 2.91 µM) and the MIC50 ([1]; 27° C., 18 hours) was 0.78 µg/mL (≈ 1.46 µM). The MIC ([1]; 27° C., 18 hours) was 0.2 to 3.13 µg/mL (≈ 0.373 to 5.84 µM), the MIC (S. epidermidis 109) was 0.39 µg/mL (≈ 0.728 µM) and the MIC [5] was 0.78 µg/mL (≈ 1.46 µM). For the same compound, the MIC (P. aeruginosa H9) was 3.13 µg/mL (≈ 5.84 µM), the MIC (Serratia marcescens) was 6.25 µg/mL (≈ 11.7 µM) and the MIC (Bacillus subtilis PCI219) was no more than 0.2 µg/mL. It also gave an MIC (E. coli JR66/W677) of 3.13 µg/mL (≈ 5.84 µM), an MIC [6] of no more than 0.2 µg/mL and an MIC (E. coli K-12 LA290 R55) of 0.78 µg/mL (≈ 1.46 µM). For the same compound, the MIC [7] was 1.56 µg/mL (≈ 2.91 µM), the MIC [8] was 0.39 µg/mL (≈ 0.728 µM) and the MIC (P. aeruginosa TI-13) was 1.56 µg/mL (≈ 2.91 µM). For the same compound, the MIC (E. coli K-12 ML1629) was 1.56 µg/mL (≈ 2.91 µM), the MIC (P. aeruginosa PST1) was 6.25 µg/mL (≈ 11.7 µM) and the MIC (Salmonella typhi T-63) was 0.78 µg/mL (≈ 1.46 µM). It also gave an MIC (Escherichia coli NIHJ) of 0.39 µg/mL (≈ 0.728 µM), an MIC [9] of 0.78 µg/mL (≈ 1.46 µM) and an MIC (Proteus vulgaris OX19) of 0.78 µg/mL (≈ 1.46 µM). For the same compound, the MIC (S. aureus Smith) was no more than 0.2 µg/mL, the MIC (B. cereus ATCC10702) was 0.78 µg/mL (≈ 1.46 µM) and the MIC (E. coli K-12 ML1410) was 1.56 µg/mL (≈ 2.91 µM).
